Data taken from US11987557B2, “Phenalene-1-one-containing photosensitizer composition, phenalene-1-one compound and the use thereof” ([…], priority 2017, dated 2024).
Values joined by “and” are separate entries in the source; they are usually repeats but may differ in a detail not shown here. Identical values can stand only once.

Legend:
[1] = tested on: S. aureus; experiment: Phototoxic effect of coated surface in office lighting (Example 4); assay type: cell-based, Staphylococcus aureus; settings: 2-C paint from Example 2.1, storage 24 h, illumination period 12 h
Method: In a subsequent test, the 2-C paint system was irradiated with room lighting. In this regard, the photoactive surfaces produced in Example 2.1 with the photosensitizers SAPN-19c and SAPN-19 were additionally stored exposed in areas with normal office lighting (standard fluorescent lights, Osram Cool White, 840) and the phototoxic action on S. aureus with the same pathogen counts as in Example 3 was analysed after specific periods. In this regard, the photoactive layers were distanced from the light source by approximately 40 cm. It was shown that for the photosensitizer SAPN-19c, after storage for 24 h under standard office lighting conditions with an illumination period of 12 h, that ail pathogens on the surface had been completely eradicated (approximately 5.5 log10 units, corresponding to >99.999% reduction).

[2] = tested on: Staphylococcus aureus ATCC 25923; experiment: Photodynamic inactivation of S. aureus on coated sample supports, LED 405 nm (Example 3); assay type: cell-based
Method: The photosensitizer was dissolved in the respective paint system and applied to various square sample supports (width: 4 cm, length: 4 cm, thickness: 3 mm) formed from PVC or PMMA and then dried. After drying the coating, a specific quantity of bacteria from the species Staphylococcus aureus ATCC 25923 was applied to the surface.
In this regard, firstly, an overnight (ON) culture of S. aureus in 5 mL of Mueller Hinton broth (Carl Roth GmbH+Co. KG, Karlsruhe, DE) was inoculated with a single colony from an agar plate and incubated at 37° C. and 180 rpm on a shaker for 18-20 hours.
On the day of the test, in each case 1 mL of ON culture was centrifuged (Hettich Universal 320 R centrifuge (Andreas Hettich GmbH & Co. KG, Tuttlingen, DE); swing-out rotor 1494; 10 Min, 3000 rpm, RT). The supernatant was discarded and the pellet was re-suspended in 1 mL of Milli-Q water, which is commercially available from Merck (KGaA, Darmstadt, DE) (designation “Milli-Q Integral Ultra-pure Water (Type 1)”).
After determining the optical density at 600 nm (“Specord 50 plus”, spectrometer, Analytik Jena), the re-suspended bacteria were diluted with Milli-Q-water to a cell count of 10^5 bacteria/mL. From the dilution, in each case 100 μL was dripped onto the sample support using a pipette (droplet size approximately 1 cm^2).
The sample support was then dried in air under a clean bench in the dark for approximately 2 hours, until water could no longer be seen on the surface.
The respective sample supports were irradiated with monochrome light at a wavelength of 405 nm with the aid of a LED module (test area 5×5 cm homogeneously illuminated; high power LEDs) or with room lighting (Osram Lumilux Cool White, colour temperature 4000 K) at the intensities and for the irradiation periods given below. Directly after irradiation, the bacteria were wiped from the surface of the respective sample support with a sterile cloth and re-suspended in 1 mL of Mueller-Hinton broth.
Next, the sample was serially diluted (1:10 dilution stages: 180+20 μL; to dilution stage 10^5).
For each dilution stage (100 to 10^−5), 3× respectively 20 μL of broth was dripped onto a Mueller-Hinton agar plate (Carl Roth GmbH+Co. KG) using a pipette, and spread. The agar plates were then incubated at 37° C. ON.
On the following day, the colonies from all of the dilution stages which could be counted of an experiment were counted and the CFU/mL was calculated.
Next, from the value for the CFU/mL, the log10 eradication rate was calculated. The reference point in each experiment was the reference control (=100% count of bacteria employed).
A test was composed of the following: • coated sample support: without photosensitizer, not irradiated (“reference control”) • coated sample support: with photosensitizer, not irradiated (“dark control”) • coated sample support: without photosensitizer and irradiated (“light control”) • coated sample support: with photosensitizer and irradiated (“sample”)
• Coated material: PMMA, 3 mm thickness, 4×4 cm • Drying time approximately 1 hour • Drying temperature 15-30° C. • Application with a spray gun • Concentration of photosensitizer used: […] (61.55 mg/L) Irradiation Conditions:
• Coated material: PVC, 3 mm thickness, 4×4 cm • Drying time approximately 2 hours • Drying temperature 15-30° C. • Relative humidity for the drying time 30-70% • Application with a spray gun • Concentration of photosensitizer used: […] (61.55 mg/L) Irradiation Conditions: […]

[3] = tested on: S. aureus; experiment: Long-term test of photoactive stability after pre-irradiation (Example 5); assay type: cell-based, Staphylococcus aureus
Method: In order to test the stability of the lacks produced, a long term test was carried out.
The test surfaces were pre-irradiated for different time periods (5, 25, 50, 75 h) at an output of 5 mW cm^−2 in order to establish whether the respective photosensitizer in PUR was affected in a manner such that the phototoxic activity of the surface was reduced:
Following the pre-irradiation, the surfaces as described above were contaminated with S. aureus then irradiated for 2 h (corresponds to 5 mW cm^−2) and the phototoxic efficiency was measured.

Compound	eradication of pathogens on the surface ([1]; standard office lighting (Osram Cool White, 840), approx. 40 cm)	reduction of pathogens on the surface ([1]; standard office lighting) [%]	mean eradication of S. aureus ([2]; 1-C polyurethane paint, water-based, on PVC, LED 405 nm, 10 mW/cm^2, 10 minutes (6 J/cm^2), three independent tests)	eradication of S. aureus ([2]; 2-C polyurethane paint on PMMA, LED 405 nm, 0.7 mW/cm^2, after 20 minutes, two independent tests) [log10 units]	log10 reduction of S. aureus ([2]; 2-C polyurethane paint on PMMA, photosensitizer 200 μm (61.55 mg/L), LED 405 nm, 10 mW/cm^2, 2 minutes (1.2 J/cm^2), mean of 3 independent experiments) [log10]	extermination of S. aureus ([2]; 2-C polyurethane paint on PMMA, photosensitizer 200 μm (61.55 mg/L), LED 405 nm, 20 mW/cm^2, 2 minutes (2.4 J/cm^2)) [log10 units]	reduction of the bacteria involved ([2]; coating at 6 J/cm^2, equivalent of 3 log10 units) [%]	phototoxic efficiency after pre-irradiation ([3]; PUR surface pre-irradiated 5, 25, 50, 75 h at 5 mW cm^−2, then contaminated with S. aureus and irradiated 2 h)	state of the test surfaces after one month ([3]; porphyrin-doped surfaces, after one month)
CC(C)(O)c1cc[n+](CC2=Cc3cccc4cccc(c34)C2=O)cc1 [SAPN-19c]	approximately 5.5 log10 units	> 99.999	3.0 log10 units and 3 log10 units	1.9	1.8	2.7	99.9	–	–
OCCOCCOc1ccc(-c2c3nc(c(-c4ccccc4)c4ccc([nH]4)c(-c4ccccc4)c4nc(c(-c5ccccc5)c5ccc2[nH]5)C=C4)C=C3)cc1 [TPP sensitizer WBII/2]	–	–	–	–	–	–	–	noticeable reduction in the phototoxic efficiency	discoloured significantly and they lost phototoxic activity
